Data reported in the NIST ThermoML archive (doi:10.1016/j.fluid.2006.02.001).
± gives the expanded uncertainty stated by the source. Each block holds one compound with its values, some of them ahead of it.

Experiments:
[1] = visual observation
[2] = Solid-liquid equilibrium temperature; settings: Crystal, Closed cell
[3] = Molar enthalpy of transition or fusion; settings: Crystal; DSC

Normal melting temperature ([1]; Crystal 1): 64.52 ± 0.5 °C
SMILES: CCCCCCCCCCCCCCCCCCCCO [1-eicosanol]

Normal melting temperature ([1]; Crystal 1): 49.1 ± 0.5 °C
SMILES: CCCCCCCCCCCCCCCCO [1-hexadecanol]

Normal melting temperature ([1]; Crystal 1): 57.00 ± 0.5 °C
SMILES: CCCCCCCCCCCCCCCCCCO [1-octadecanol]

Normal melting temperature ([1]; Crystal 1): -52.00 ± 0.5 °C | Solid-liquid equilibrium temperature ([2]; 697870 kPa): 293.15 ± 2.6 K | Solid-liquid equilibrium temperature ([2]; 807350 kPa): 303.15 ± 2.6 K | Solid-liquid equilibrium temperature ([2]; 947230 kPa): 313.15 ± 2.5 K | Solid-liquid equilibrium temperature ([2]; 1117520 kPa): 323.15 ± 2.5 K | Solid-liquid equilibrium temperature ([2]; 1318200 kPa): 333.15 ± 2.5 K | Solid-liquid equilibrium temperature ([2]; 1549280 kPa): 343.15 ± 2.8 K | Molar enthalpy of transition or fusion [3]: 1.87 ± 0.055 kcal/mol
SMILES: CCC(=O)C(C)=O [2,3-pentanedione]

Normal melting temperature ([1]; Crystal): 7.0 ± 0.25 °C | Solid-liquid equilibrium temperature ([2]; 23390 kPa): 293.15 ± 0.52 K | Solid-liquid equilibrium temperature ([2]; 45610 kPa): 303.15 ± 0.89 K | Solid-liquid equilibrium temperature ([2]; 67600 kPa): 313.15 ± 1.3 K | Solid-liquid equilibrium temperature ([2]; 89340 kPa): 323.15 ± 1.7 K | Solid-liquid equilibrium temperature ([2]; 110840 kPa): 333.15 ± 2.1 K | Solid-liquid equilibrium temperature ([2]; 132100 kPa): 343.15 ± 2.5 K
SMILES: C1CCCCC1 [cyclohexane]

Normal melting temperature ([1]; Crystal): 36.36 ± 0.25 °C
SMILES: CCCCCCCCCCCCCCCCCCCC [eicosane]

Normal melting temperature ([1]; Crystal): 18.30 ± 0.25 °C
SMILES: CCCCCCCCCCCCCCCC [hexadecane]

Normal melting temperature ([1]; Crystal): -4.14 ± 0.35 °C | Solid-liquid equilibrium temperature ([2]; 132350 kPa): 293.15 ± 0.9 K | Solid-liquid equilibrium temperature ([2]; 196230 kPa): 303.15 ± 1.2 K | Solid-liquid equilibrium temperature ([2]; 264630 kPa): 313.15 ± 1.6 K | Solid-liquid equilibrium temperature ([2]; 337550 kPa): 323.15 ± 1.9 K | Solid-liquid equilibrium temperature ([2]; 415000 kPa): 333.15 ± 2.1 K | Solid-liquid equilibrium temperature ([2]; 496960 kPa): 343.15 ± 2.5 K
SMILES: CCCCCCCCCCCCC [tridecane]
